Here are results for nine compounds from paper PMC6010102, “N-thioalkylcarbazoles derivatives as new anti-proliferative agents: synthesis, characterisation and molecular mechanism evaluation” (Journal of Enzyme Inhibition and Medicinal Chemistry, 2018).

Structures are written as SMILES.

For experiment [1], the system named is MCF-7 human breast cancer cells. Put plainly: MTT cell viability, MCF-7. It is filed as cell-based. The note with it: MCF7, 72 h exposure, mean ± SD, read-out: Antiproliferative activity IC50, MCF-7. An excerpt: (§1) The six cell lines used in this work were purchased from American Type Culture Collection (ATCC, Manassas, VA). MCF-7 human breast cancer cells, oestrogen receptor (ER) positives, were maintained in Dulbecco’s Modified Eagle’s Medium/Nutrient Mixture F-12 Ham (DMEM/F12), supplemented with 5% foetal bovine serum (FBS) and 100 U/ml penicillin/streptomycin, as previously described. MDA-MB-231, human breast cancer cells, oestrogen receptor (ER) negative, were maintained in Dulbecco’s Modified Eagle’s Medium/Nutrient Mixture F-12 Ham (DMEM/F12), supplemented with 5% Newborn Calf Serum (NCS) and 100 U/ml penicillin/streptomycin. HeLa human epithelial cervix carcinoma cells, oestrogen receptor (ER) negative, and ISHIKAWA human endometrial adenocarcinoma cell, oestrogen receptor positive, were maintained in minimum essential medium (MEM), supplemented with 10% FBS, 100 U/ml penicillin/streptomycin and 1% non-essential amino acid. 3T3-L1 cells line of murine fibroblasts of embryonic type, were maintained in DMEM, supplemented with 10% NCS and 100 U/ml penicillin/streptomycin. MCF-10A human mammary epithelial cells were cultured in DMEM/F12 medium, supplemented with 5% horse serum (HS) (Eurobio, Les Ullis, Cedex, France), 100 U/ml penicillin/streptomycin, […] hydrocortisone, 20 ng/ml hEGF (human epidermal growth factor), 10 μg/ml insulin and […] cholera enterotoxin (Sigma-Aldrich, Milano, Italy). Cells were maintained at 37 °C in a humidified atmosphere of 95% air and 5% CO2 and periodically screened for contamination.
(§2) MDA-MB-231, MCF-7, HeLa and ISHIKAWA cells were grown in complete medium and, before being treated, they were serum deprived for 24 h, to allow cell cycle synchronisation. Then cells were grown in phenol red-free medium supplemented with 1% DCC (destran-coated charcoal treated) FBS, then treated with increasing concentrations (0.1, 1, 10, 20, 40, 100 µM) of each compound for 72 h. Compounds were dissolved in dimethylsulphoxide (DMSO) (Sigma, St. Louis, MO) and diluted in each cell medium. Untreated cells, used as a control, were added with DMSO alone (final concentration 0.1%). Cell viability was assessed using the 3-[4,5-dimethylthiazol-2-yl]-2,5-diphenyltetrazolium bromide reagent (MTT), according to the protocol from manufacturer (Sigma-Aldrich, Milan, Italy), as previously described[37] ^, [38]. For each sample, the mean absorbance, measured at 570 nm, was expressed as a percentage of the control and plotted versus drug concentration to determine for each cell line the IC50 values (namely, drugs concentrations able to reduce cell viability of 50% with respect to the control), using GraphPad Prism 5 Software (GraphPad Inc., San Diego, CA)[39]. Each experiment was carried out in quadruplicate. Standard deviations (SD) were shown.

Experiment [2] has as its system MDA-MB-231 human breast cancer cells. Put plainly: MTT cell viability, MDA-MB-231. The note with it: 72 h exposure, mean ± SD, read-out: Antiproliferative activity IC50, MDA-MB-231. It is filed as cell-based.
Description: as §1, §2

Experiment [3] deals with ISHIKAWA human endometrial adenocarcinoma cells. Put plainly: MTT cell viability, ISHIKAWA
It is filed as cell-based. The note with it: 72 h exposure, mean ± SD, read-out: Antiproliferative activity IC50, ISHIKAWA
Description: as §1, §2

The test system of experiment [4] is HeLa human epithelial cervix carcinoma cells. In words: MTT cell viability, HeLa. It is filed as cell-based. The conditions noted are these: 72 h exposure, mean ± SD, read-out: Antiproliferative activity IC50, HeLa.
Description: as §1, §2

Experiment [5] deals with MCF-10A human mammary epithelial cells. Put plainly: MTT cell viability, MCF-10A. The note with it: non-tumoural cells, 72 h exposure, mean ± SD, read-out: Antiproliferative activity IC50, MCF-10a. The class given is cell-based.
Description: as §1, §2

For experiment [6], the system named is 3T3-L1 murine fibroblasts. Put plainly: MTT cell viability, 3T3-L1. The class given is cell-based. The conditions noted are these: Mus musculus, non-tumoural cells, 72 h exposure, mean ± SD, read-out: Antiproliferative activity IC50, 3T3-L1.
Description: as §1, §2

A further experiment has as its target hTopoII (Homo sapiens, UniProt P11388). In words: Human topoisomerase II decatenation assay. The class given is biochemical. The note with it: 50 µM, reference molecule. As to the method: Human topoisomerase II decatenation assay: hTopoII decatenation assays were performed as reported in Iacopetta et al.[8].
Figure 2. hTopoII inhibition assay. kDNA was incubated with human Topoisomerase II in the absence (lane C, vehicle DMSO) or presence of compound 5c (lane 5c) or Ellipticine (lane E) at 10 and 50 µM, respectively. Lane K, kinetoplast DNA (kDNA).

Sequence of hTopoII (P11388 whole entry): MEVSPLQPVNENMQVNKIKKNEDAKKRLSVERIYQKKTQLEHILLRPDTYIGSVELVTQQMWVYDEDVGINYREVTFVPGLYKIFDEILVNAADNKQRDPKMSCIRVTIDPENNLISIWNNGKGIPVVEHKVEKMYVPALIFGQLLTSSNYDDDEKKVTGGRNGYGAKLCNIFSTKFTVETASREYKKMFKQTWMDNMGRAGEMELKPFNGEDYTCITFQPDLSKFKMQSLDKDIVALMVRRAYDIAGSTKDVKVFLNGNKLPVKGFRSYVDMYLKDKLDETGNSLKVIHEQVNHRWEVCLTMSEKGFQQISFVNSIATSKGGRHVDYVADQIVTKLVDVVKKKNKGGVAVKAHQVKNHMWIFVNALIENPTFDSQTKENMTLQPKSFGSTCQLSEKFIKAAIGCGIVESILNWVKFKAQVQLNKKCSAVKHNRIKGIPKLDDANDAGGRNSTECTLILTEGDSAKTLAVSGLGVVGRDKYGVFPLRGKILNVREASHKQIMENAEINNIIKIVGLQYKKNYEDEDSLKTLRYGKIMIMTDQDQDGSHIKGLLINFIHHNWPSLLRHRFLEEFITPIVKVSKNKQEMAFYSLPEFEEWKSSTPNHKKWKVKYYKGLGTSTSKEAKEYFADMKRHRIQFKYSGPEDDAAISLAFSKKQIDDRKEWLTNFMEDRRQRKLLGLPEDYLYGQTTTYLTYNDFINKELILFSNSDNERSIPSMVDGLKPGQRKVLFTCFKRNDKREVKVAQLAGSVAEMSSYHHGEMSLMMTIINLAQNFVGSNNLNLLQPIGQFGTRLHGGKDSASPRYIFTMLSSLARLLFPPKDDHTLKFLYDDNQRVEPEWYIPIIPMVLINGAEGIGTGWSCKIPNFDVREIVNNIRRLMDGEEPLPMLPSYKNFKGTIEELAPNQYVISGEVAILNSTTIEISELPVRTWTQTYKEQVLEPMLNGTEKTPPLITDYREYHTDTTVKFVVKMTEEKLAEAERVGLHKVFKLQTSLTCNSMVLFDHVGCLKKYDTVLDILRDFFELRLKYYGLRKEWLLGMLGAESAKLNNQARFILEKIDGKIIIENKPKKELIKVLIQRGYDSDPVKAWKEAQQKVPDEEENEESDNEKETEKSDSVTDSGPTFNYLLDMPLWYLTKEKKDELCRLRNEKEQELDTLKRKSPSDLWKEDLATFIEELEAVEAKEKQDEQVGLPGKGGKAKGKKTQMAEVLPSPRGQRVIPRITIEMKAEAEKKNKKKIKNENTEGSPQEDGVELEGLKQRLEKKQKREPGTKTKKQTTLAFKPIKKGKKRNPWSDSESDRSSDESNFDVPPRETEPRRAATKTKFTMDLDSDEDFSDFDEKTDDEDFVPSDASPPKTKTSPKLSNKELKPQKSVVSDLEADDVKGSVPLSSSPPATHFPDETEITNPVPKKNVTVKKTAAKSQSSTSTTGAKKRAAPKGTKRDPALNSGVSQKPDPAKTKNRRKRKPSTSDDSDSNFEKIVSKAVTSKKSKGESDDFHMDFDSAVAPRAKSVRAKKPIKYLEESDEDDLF

As a reminder, the IC50 is the concentration at which inhibition is half-maximal. Regarding `SCCCCCCCn1c2ccccc2c2ccccc21` [5a, 7-(9H-Carbazol-9-yl)heptane-1-thiol], the IC50 in experiment [1] is 50.4 ± 0.96 µM; in experiment [2] it was 39.9 ± 0.52 µM; in experiment [3], 19.2 ± 1.13 µM; in experiment [4], 12.8 ± 0.62 µM; in experiment [5], greater than 100 µM; in experiment [6], greater than 100 µM.
With `Cc1ccc2c(c1)c1c(C)ccc(C)c1n2CCCCCCCS` [5b, 7-(1,4,6-Trimethyl-9H-carbazol-9-yl)-heptane-1-thiol], the half-inhibitory concentration (IC50) in experiment [1], in experiment [2], in experiment [3], in experiment [4], in experiment [5] and in experiment [6] was greater than 100 µM throughout.
Take `SCCCCCCCCn1c2ccccc2c2ccccc21` [6a, 8-(9H-Carbazol-9-yl)octane-1-thiol]: the concentration for half-maximal inhibition (IC50) in experiment [1], in experiment [2], in experiment [3], in experiment [4], in experiment [5] and in experiment [6] was greater than 100 µM in each case.
Turning to `Cc1ccc2c(c1)c1c(C)ccc(C)c1n2CCCCCCCCS` [6b, 8-(1,4,6-Trimethyl-9H-carbazol-9-yl)-octane-1-thiol], the IC50 in experiment [1], in experiment [2], in experiment [3], in experiment [4], in experiment [5] and in experiment [6] was greater than 100 µM in each case.
For `Cc1ccc(C)c2c1c1cc(Br)ccc1n2CCCCCCCCS` [6c, 8-(6-Bromo-1,4-dimethyl-9H-carbazol-9-yl)-octane-1-thiol], the half-inhibitory concentration (IC50) in experiment [1], in experiment [2], in experiment [3], in experiment [4], in experiment [5] and in experiment [6] was greater than 100 µM each time.
With `SCCCCCCCCCn1c2ccccc2c2ccccc21` [7a, 9-(9H-Carbazol-9-yl)nonane-1-thiol], the IC50 in experiment [1], in experiment [2], in experiment [3], in experiment [4], in experiment [5] and in experiment [6] was greater than 100 µM each time.
With `Cc1ccc2c(c1)c1c(C)ccc(C)c1n2CCCCCCCCCS` [7b, 9-(1,4,6-Trimethyl-9H-carbazol-9-yl)-nonane-1-thiol], the IC50 in experiment [1], in experiment [2], in experiment [3], in experiment [4], in experiment [5] and in experiment [6] was greater than 100 µM each time.
`Cc1ccc(C)c2c1c1cc(Br)ccc1n2CCCCCCCCCS` [7c, 9-(6-Bromo-1,4-dimethyl-9H-carbazol-9-yl)-nonane-1-thiol]: the IC50 in experiment [1], in experiment [2], in experiment [3], in experiment [4], in experiment [5] and in experiment [6] was greater than 100 µM throughout.
Regarding `Cc1c2ccncc2c(C)c2c1[nH]c1ccccc12` [Ellipticine, reference compound], the IC50 in experiment [1] worked out at 1.25 ± 0.3 µM; in experiment [2], 1.85 ± 0.15 µM; in experiment [3], 1.7 ± 0.8 µM; in experiment [4], 1.05 ± 0.5 µM; in experiment [5] it was 1.2 ± 0.2 µM; in experiment [6], 0.98 ± 0.7 µM. Besides, the “hTopoII inhibition (kDNA decatenation)” value on hTopoII was “complete inhibition”.
